One data set deals with T1, CXCR3 (Homo sapiens, UniProt P49682).
T1 sequence (P49682 1-368): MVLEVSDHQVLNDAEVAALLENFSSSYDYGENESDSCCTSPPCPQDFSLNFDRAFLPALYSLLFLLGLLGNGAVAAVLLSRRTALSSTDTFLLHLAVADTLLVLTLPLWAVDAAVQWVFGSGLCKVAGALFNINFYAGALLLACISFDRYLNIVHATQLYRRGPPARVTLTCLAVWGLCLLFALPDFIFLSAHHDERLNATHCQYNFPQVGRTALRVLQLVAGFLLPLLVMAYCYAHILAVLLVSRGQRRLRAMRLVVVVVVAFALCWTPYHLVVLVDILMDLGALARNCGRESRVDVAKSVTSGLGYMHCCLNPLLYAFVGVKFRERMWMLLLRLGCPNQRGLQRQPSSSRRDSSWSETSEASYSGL
The settings on record: statement in words, refers to the '641 application; cited from earlier work.

The nature of data set [1]: aqueous solubility of salt forms (comparison in words, no method given). The data set is classed as physicochemical. Conditions: methylsulfonate salt compared to other salts.

With `CCNc1nnc(-c2cnc(N3C[C@H](CC)N(C4CCN(C(=O)c5ccc(Cl)cc5)CC4)C[C@H]3C)c(C)n2)o1` [Compound A45], the CXCR3 inhibitor activity result on CXCR3 is on record as “useful CXCR3 inhibitor activity”.

Consider `CCNc1nnc(-c2cnc(N3C[C@H](CC)N(C4CCN(C(=O)c5ccc(Cl)cc5)CC4)C[C@H]3C)c(C)n2)o1` [Compound II-1], for which, in data set [1], the aqueous solubility result is given as “higher aqueous solubility”.

These data come from patent publication US20110124867A1, “Process and intermediates for the Synthesis of heterocyclic Substituted Piperazines with CXCR3 Antagonist Activity” (Schering Corporation, priority 2007, published 2011).
